Test results from patent US20120165403A1, “METHODS OF INHIBITING THE ACTIVITY OF HSP90 AND/OR ARYL HYDROCARBON RECEPTOR” (UNIVERSITY OF ROCHESTER, priority 2004, published 2012).

Assays:
[1] = tested on: AhR; test: AhR protein levels by western blotting in Hepa cells; type: cell-based, mouse; conditions: over 12 hours
Experimental: Hepa cells were plated onto 6-well plates at a density of 5×10^5 cells/well and incubated overnight at 37° C. […] Cells were lysed (0.2% Triton, 5 mM EDTA in PBS) and total protein quantified using the Coomassie Plus Protein Assay Reagent (Pierce, Rockford, Ill.). Protein (30 μg) was separated by SDS-PAGE (7.5% acrylamide resolving gel) and transferred to PVDF membrane (Millipore, Bedford, Mass.). Membranes were probed with antibodies recognizing CYP1A1 (Xenotech, Lenexa, Kans.), AhR (Biomol, Plymouth Meeting, Pa.) and actin (Sigma). The secondary IgG antibodies were coupled to horseradish peroxidase (Jackson Immuno Research, West Grove, Pa.). Both primary and secondary antibodies were used at a dilution of 1:5000 in TBST (50 mM Tris, 300 mM NaCl, 0.5% Tween 20, pH 7.5) containing 5% milk. Proteins were visualized by chemiluminescence (KPL, Gaithersburg, Md.).

[2] = tested on: AhR; test: Immunocytochemistry of AhR subcellular localization in Hepa cells; type: cell-based, mouse; conditions: 1 h
Experimental: Hepa cells were plated onto four-well chamber slides (Becton Dickinson, Bedford, Mass.) at a density of 2.0×10^4 and incubated overnight. Cells were treated with either vehicle (DMSO), TCDD (150 pM), EGCG alone (200 μM), or EGCG in the presence of TCDD (150 pM) for 1 h. Cells were fixed with 3.7% formalin at room temperature for 10 minutes, followed by a four minute incubation in anhydrous methanol at 4° C. All antibodies were filtered through a 0.45 micron filter before staining Cells were blocked for one hour in phosphate buffered saline containing 4% BSA, incubated with anti-AhR at a 1:2000 dilution for two hours at room temperature, followed by a one hour incubation with 1:1000 anti-rabbit Alexa-Fluor conjugated secondary antibody (Molecular Probes, Eugene Oreg.). Nuclei were stained with DAPI (0.5 μg/ml) (Molecular Probes) for three minutes at room temperature. Slides were mounted with 50% glycerol and coverslipped. AhR staining and nuclear staining were visualized using a Nikon Eclipse TS110 fluorescent microscope (40× magnification). Fluorescent images were captured using SPOT advanced software.

[3] = biological target: T1, ARNT (Mus musculus, UniProt P53762); test: Affinity chromatography on EGCG-conjugated Sepharose, in vitro translated ARNT; type: binding, murine; conditions: 35S-ARNT in vitro translated in RRL
T1 construct: made in house; host or cells: coupled transcription/translation in rabbit reticulocyte lysate (TNT, Promega), 35S-labelled
T1 sequence (P53762 whole entry): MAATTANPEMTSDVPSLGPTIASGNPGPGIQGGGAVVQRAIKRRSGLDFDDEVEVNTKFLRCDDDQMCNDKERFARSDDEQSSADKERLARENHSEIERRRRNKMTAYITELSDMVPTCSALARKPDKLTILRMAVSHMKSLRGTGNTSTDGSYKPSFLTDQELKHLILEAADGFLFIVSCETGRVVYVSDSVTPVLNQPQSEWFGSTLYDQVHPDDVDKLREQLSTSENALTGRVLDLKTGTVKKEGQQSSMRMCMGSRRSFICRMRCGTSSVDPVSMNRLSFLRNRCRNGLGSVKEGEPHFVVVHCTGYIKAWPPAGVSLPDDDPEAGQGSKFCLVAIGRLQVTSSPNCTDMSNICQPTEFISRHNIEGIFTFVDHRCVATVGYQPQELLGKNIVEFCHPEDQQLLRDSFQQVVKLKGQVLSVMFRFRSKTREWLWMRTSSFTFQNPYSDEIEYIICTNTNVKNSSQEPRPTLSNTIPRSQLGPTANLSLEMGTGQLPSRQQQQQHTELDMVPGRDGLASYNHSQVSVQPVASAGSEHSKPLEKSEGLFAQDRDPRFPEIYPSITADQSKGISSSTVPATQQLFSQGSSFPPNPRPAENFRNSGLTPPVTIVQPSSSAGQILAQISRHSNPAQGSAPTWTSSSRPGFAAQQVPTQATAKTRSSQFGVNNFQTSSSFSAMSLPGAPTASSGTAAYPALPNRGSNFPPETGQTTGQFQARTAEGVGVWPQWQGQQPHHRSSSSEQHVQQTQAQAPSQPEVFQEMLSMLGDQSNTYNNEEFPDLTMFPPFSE
Excerpt: Murine AhR and ARNT cDNA (obtained from J. Whitlock and O. Hankinson, respectively) were inserted into pcDNA3 (Invitrogen, Carlsbad, Calif.). Chicken hsp90 constructs (FIG. 5), c90711hsp (wild-type), c90G94D (wild-type point mutant gly94→Asp (Grenert et al., J. Biol. Chem. 272:23843-23850 (1997), which is hereby incorporated by reference in its entirety), c90D92A (wild-type point mutant Asp92→Ala (Sullivan et al., J. Biol. Chem. 268:20373-20379 (1993), which is hereby incorporated by reference in its entirety), c90N221 (wild-type truncation mutant encoding a.a. 221-728 (Sullivan et al., J. Biol. Chem. 268:20373-20379 (1993), which is hereby incorporated by reference in its entirety)), c90N303 (a.a. 303-728) and c90N538 (a.a. 538-728) were kind gifts from Dr. D. Toft (Rochester, Minn.). The C-terminal truncation mutant c900507 (a.a. 1-221) was obtained from Dr. L. Neckers (Rockville, Md.) (Grenert et al., J. Biol. Chem. 272:23843-23850 (1997); Marcu et al., J. Biol. Chem. 275:37181-37186 (2000), which are hereby incorporated by reference in their entirety). Human p23 cDNA was excised from pQE80-p23 (obtained from W. Chan Stockton, Calif.) by sequential digests using the restriction enzymes Sad (3′-end) and BamHI (5′-end) and inserted into the similarly digested pET28a (Novagen, Madison, Wis.). […]

Structure (SMILES): O=C(O[C@@H]1Cc2c(O)cc(O)cc2O[C@@H]1c1cc(O)c(O)c(O)c1)c1cc(O)c(O)c(O)c1 [EGCG, epigallocatechin gallate]
- effect on the TCDD-induced decrease of AhR levels ([1]; 200 μM EGCG with 150 pM TCDD): not exacerbated or prevented
- AhR protein levels, treatment alone ([1]; EGCG 200 μM or TCDD 150 pM): not capable of inducing AhR degradation
- effect on TCDD induced nuclear localization of the AhR ([2]; 200 μM EGCG with 150 pM TCDD): did not attenuate this TCDD induced nuclear localization
- subcellular localization of the AhR, treatment alone ([2]; EGCG 200 μM or TCDD 150 pM): remarkable redistribution of the AhR from the cytosol to the nucleus
- binding of ARNT to immobilized EGCG [3]: incapable of binding immobilized EGCG
